Results as given in PMC7993375, “Discovery of novel quinoline-based analogues of combretastatin A-4 as tubulin polymerisation inhibitors with apoptosis inducing activity and potent anticancer effect” (Journal of Enzyme Inhibition and Medicinal Chemistry, 2021).
Like-named read-outs stand apart in the source and are kept apart here.

Assays:
MCF-7 = assay: MTT cell viability assay, MCF-7 breast adenocarcinoma cells; assay type: cell-based; conditions: Homo sapiens
Method: (§1) The four human tumour cell lines MCF-7, HCT-116, HL-60 and HeLa used in this study were obtained from the VACSERA (Giza, Egypt) cell culture unit that were originally acquired from ATCC (Manassas, VA, USA). All the human tumour cell lines were cultured in Dulbecco’s Modified Eagle’s Medium (DMEM) with 10% foetal bovine serum, 2 mM L-glutamine and 100 µg/mL penicillin/streptomycin. Cells were maintained at 37 °C in 5% CO2 in a humidified incubator. All cells were sub-cultured 3 times/week by trypsinisation using TrypLE Express (1X).
(§2) The quinoline compounds were evaluated for antiproliferative effect using the MTT viability assay of four cancer cell lines (MCF-7, HCT-116, HL-60 and HeLa) and normal breast cells MCF-10A to calculate the relative IC50 values for each compound. Cells were seeded in triplicate in 96-well plates at a density of 10 × 10^3 cells/ml in a total volume of 200 µl per well. 0.1% of DMSO was used as a vehicle control. Following, the cells were treated with 2 µl test compound (from stock solutions in ethanol) to furnish the concentration range of study, 1 nM to 50 µM, and re-incubated for a further 72 h. The culture medium was then removed, and the cells washed with 100 µL phosphate buffered saline (PBS) and 50 µL MTT added, to reach a final concentration of 1 mg/mL. Cells were incubated for 2 h in darkness at 37 °C. Solubilisation was begun through the addition of […] DMSO, and the cells maintained at room temperature in darkness for 20 min to ensure thorough colour diffusion before reading the absorbance. Plates were incubated for 72 h at 37 °C + 5% CO2. The MTT (5 mg/mL in PBS) was added and incubated for another 4 h, and the optical density was detected with a microplate reader at 570 nm. Results were expressed as percentage viability relative to vehicle control (100%). Dose response curves were plotted and IC50 values (concentration of drug resulting in 50% reduction in cell survival) were obtained using the commercial software package Prism (GraphPad Software, Inc., La Jolla, CA, USA). All the experiments were repeated in at least three independent experiments.

[1] = test system: tubulin (colchicine binding site); assay: Colchicine site competitive binding assay ([3H]colchicine); conditions: tubulin 1 µM, colchicine 5 µM
Method: The affinity of compounds 12c to colchicine binding site was determined using Colchicine Site Competitive Assay kit CytoDYNAMIX Screen15 (Cytoskeleton, Inc., Denver, CO, USA) using the standard protocol of the manufacturer to determine Ki. Biotin-labelled tubulin ([…], PerkinElmer, Waltham, MA) and the test compounds (positive control colchicine, negative control vinblastine, G-1, fluorescent G-1, or 2-ME) in a 96-well plate (final volume: 100 µL). After incubating for 2 h at 37 °C with gentle shaking, streptavidin-labelled yttrium SPA beads (80 µg in 20 µL reaction buffer, PerkinElmer, Waltham, MA) were added to each well and incubated for 30 min at 4 °C. The plates were then read on a scintillation counter (Packard Instrument, Topcount Microplate Reader) and the percentage of inhibition was calculated[50]^,[51].

MCF-7 cells [2] = assay: Intracellular ROS production (H2-DCFDA); assay type: cell-based, human; conditions: 24 h, untreated 1.0%
Method: (§3) Mitochondrial membrane potential (Δψmt) was measured by flow cytometry with DiOC2(3) staining and additional labelling with an annexin V conjugate. After treatment with compound 12c (50 and 250 nM) and CA-4 (50 nM), cells were stained with DiOC2(3) dye for 30 min in the incubator, then harvested and washed with PBS. DiOC2(3)-stained cells were resuspended with 1X annexin binding buffer, followed by addition of annexin V conjugate and incubated at 37 °C for 15 min. The data from the flow cytometry were analysed by Cell Quest software. Production of intracellular reactive oxygen species (ROS) was measured using 2,7–dichlorofluorescin diacetate (H2-DCFDA) dye. MCF-7 cells were seeded and treated either with vehicle (0.1% DMSO) or with compound 12c (50 and 250 nM) or CA-4 (50 nM) for 6, 12 and 24 h. H2O2 was used as a positive control. The amount of ROS generated was estimated after 2 h of selected compound treatment. The cells were collected by centrifugation and washed twice with PBS. Cells were then incubated with DCFDA dye (25 µM) in dark at 37 °C for 1 h. Fluorescence spectra (510 − 600 nm) were monitored using an excitation wavelength of 488 nm[53]^,[54].

[3] = test system: anti-apoptotic protein Bcl-2; assay: Bcl-2 ELISA, expression level in MCF-7 cells; assay type: cell-based, human; conditions: MCF-7, 250 nM, 48 h
Method: (§4) The level of the anti-apoptotic marker and apoptotic marker BAX were assessed using Bcl-2 Elisa kit and human Bax ELISA Kit purchased from Zymed laboratories, invitrogen and Cloud-Clone Crop. (Katy, TX, USA), respectively, following the manufacturer’s instructions. Briefly, Treated MCF-7 cell lysate with 250 nM of compound 12c were prepared, and equal amount of cell lysates were loaded and propped with specific antibodies. The samples were measured and analysed at 450 nm in ROBONEK P2000 ELISA reader. In Vitro Caspase-9 Activation Assay was performed using human active caspase-9 Invitrogen EIA kit according to the manufacturer’s instructions. Compound 12c at concentrations of 50 and 250 nM and CA-4 (50 nM) were prepared in dH2O up to a final volume of 50 µL/well followed by addition of 5 µL of active caspase-9. Following, the cells were mixed and 50 µL of the Master Mix was added to each well and allowed to react at 37 °C for 1 h. The fluorescence intensity of the test samples was recorded and analysed in a fluorescence plate reader at 400 nm excitation and 505 nm emissions. All experiments were conducted in triplicates.

[4] = test system: pro-apoptotic protein Bax; assay: Bax ELISA, expression level in MCF-7 cells; assay type: cell-based, human; conditions: MCF-7, 250 nM, 48 h
Method: as §4

MCF-7 cells [5] = assay: Colony formation assay; assay type: cell-based, human; conditions: 50 and 250 nM
Method: MCF-7 cells (600 cells per well) were seeded in 6-well plates and incubated for 24 h before being then treated with different doses of the compound 12c (50 and 250 nM) for 14 days. Following, the cells were washed with PBS twice and subsequently fixed with 4% paraformaldehyde and stained with 0.05% crystal violet for 30 min. Finally, cells were visualised using an inverted microscope.

MCF-7 cells [6] = assay: Wound healing assay; assay type: cell-based, human
Method: MCF-7 were grown in 6-well plates for 24 h, and scratches were made using pipette tip and washed with PBS to remove non-adherent cell debris. Subsequently, the cells were treated with different concentrations of 12c for 24 h. The migrations across the wound area were photographed under a phase contrast microscopy.

MCF-7 cells [7] = assay: Mitochondrial membrane potential (DiOC2(3), annexin V, flow cytometry); assay type: cell-based, human; conditions: 24 h, untreated 1.1%
Method: as §3

[8] = test system: MCF-7, HL-60, HCT-116 and HeLa; assay: MTT cell viability assay, statements over all four cancer cell lines; assay type: cell-based, human; conditions: Homo sapiens
Method: as §1, §2

[9] = MCF7, 72 h, read-out: IC50 value, MCF-7

COc1ccc(/C=C\c2cc(OC)c(OC)c(OC)c2)cc1O [CA-4, Combretastatin A-4]
IC50 (MCF-7; [9]): 19 ± 4 nM | Colchicine binding, % inhibition of [3H]colchicine binding ([1]; 1 µM drug): 86 ± 0.9% | Colchicine binding, % inhibition of [3H]colchicine binding ([1]; 5 µM drug): 97 ± 2% | levels of ROS in MCF-7 cells (MCF-7 cells [2]; 50 nM): 18.3%

COc1cc(C2=NC(=Cc3cc4ccc(C)cc4nc3OC)C(=O)O2)cc(OC)c1OC [Compound 12c, 4-[(2-Methoxy-7-methylquinolin-3-yl)methylene]-2–(3,4,5-trimethoxyphenyl) oxazol-5(4H)-one]
IC50 (MCF-7; [9]): 10 ± 3 nM | IC50 (MCF-7; MCF7, read-out: IC50, MCF-7): 19 nM | Colchicine binding, % inhibition of [3H]colchicine binding ([1]; 1 µM drug): 79 ± 2% | Colchicine binding, % inhibition of [3H]colchicine binding ([1]; 5 µM drug): 87 ± 1% | expression level of the anti-apoptotic protein Bcl-2 [3]: decreased | expression of the pro-apoptotic protein Bax [4]: up-regulated | clonogenic formation potential of MCF-7 cells (MCF-7 cells [5]): suppressed the clonogenic formation potential of MCF-7 cells in a dose dependent manner | MCF-7 cell migration into wound area (MCF-7 cells [6]): significantly inhibited in a dose-dependent manner | percentage of apoptotic cells with decrease in MMP (MCF-7 cells [7]; 50 nM): 24.9% | percentage of apoptotic cells with decrease in MMP (MCF-7 cells [7]; 250 nM): 31.3% | levels of ROS in MCF-7 cells (MCF-7 cells [2]; 50 nM): 22.7% | levels of ROS in MCF-7 cells (MCF-7 cells [2]; 250 nM): 26.6% | IC50 [8]: 10 to 42 nM
